Experiment: xn = mol fraction of the nth substance listed
Settings: Liquid; for speed of sound: Frequency=3 MHz, Pulse-echo method; for mass density: Vibrating tube method

CCCCCCCCCCCC [dodecane] + O=C=O
Settings	mass density, 303.15 K [kg/m3]	mass density, 313.15 K [kg/m3]	speed of sound, 303.15 K [m/s]	speed of sound, 313.15 K [m/s]
10000 kPa, x2 = 0	748.5	741.6	1318.5	1281.7
10000 kPa, x2 = 0.2032	–	–	1245.6	1209.7
10000 kPa, x2 = 0.205	756.3	748.8	–	–
10000 kPa, x2 = 0.3989	–	–	1152.2	1114.6
10000 kPa, x2 = 0.4	767.4	758.7	–	–
10000 kPa, x2 = 0.6007	–	–	1011.6	969.6
10000 kPa, x2 = 0.6008	784.3	773.3	–	–
10000 kPa, x2 = 0.7497	802.5	786.6	–	–
10000 kPa, x2 = 0.7498	–	–	845.5	793.2
10000 kPa, x2 = 0.8528	–	–	680.5	630
10000 kPa, x2 = 0.853	815.6	790.9	–	–
10000 kPa, x2 = 0.9348	817.8	771.4	–	–
10000 kPa, x2 = 0.9771	801	721.2	–	–
10000 kPa, x2 = 0.9877	790.6	689.4	–	–
20000 kPa, x2 = 0	755.1	748.5	1372.4	1337.9
20000 kPa, x2 = 0.2032	–	–	1304.1	1269.6
20000 kPa, x2 = 0.205	763.6	756.5	–	–
20000 kPa, x2 = 0.3989	–	–	1214.9	1180.3
20000 kPa, x2 = 0.4	776.3	768.1	–	–
20000 kPa, x2 = 0.6007	–	–	1084.4	1046.4
20000 kPa, x2 = 0.6008	796.3	786.1	–	–
20000 kPa, x2 = 0.7497	820.5	806.5	–	–
20000 kPa, x2 = 0.7498	–	–	937	893.3
20000 kPa, x2 = 0.8528	–	–	800.1	751.2
20000 kPa, x2 = 0.853	844.1	824.1	–	–
20000 kPa, x2 = 0.9348	868.5	838.9	–	–
20000 kPa, x2 = 0.9771	883.1	842	–	–
20000 kPa, x2 = 0.9877	887.1	841.4	–	–
30000 kPa, x2 = 0	761.3	754.8	1421.4	1389.6
30000 kPa, x2 = 0.2032	–	–	1356.4	1322.9
30000 kPa, x2 = 0.205	770.5	763.6	–	–
30000 kPa, x2 = 0.3989	–	–	1272	1238.8
30000 kPa, x2 = 0.4	784.3	776.4	–	–
30000 kPa, x2 = 0.6007	–	–	1147.4	1112.9
30000 kPa, x2 = 0.6008	806.8	797.2	–	–
30000 kPa, x2 = 0.7497	835.2	822.5	–	–
30000 kPa, x2 = 0.7498	–	–	1010.4	971.4
30000 kPa, x2 = 0.8528	–	–	885.8	843.1
30000 kPa, x2 = 0.853	865.6	847.6	–	–
30000 kPa, x2 = 0.9348	902.4	877.6	–	–
30000 kPa, x2 = 0.9771	929.5	897.3	–	–
30000 kPa, x2 = 0.9877	937.7	902.7	–	–
40000 kPa, x2 = 0	766.9	760.8	1468.5	1436.8
40000 kPa, x2 = 0.2032	–	–	1404.4	1373.3
40000 kPa, x2 = 0.205	776.8	770.3	–	–
40000 kPa, x2 = 0.3989	–	–	1323	1291
40000 kPa, x2 = 0.4	791.6	784.2	–	–
40000 kPa, x2 = 0.6007	–	–	1204.4	1170.9
40000 kPa, x2 = 0.6008	816	807.2	–	–
40000 kPa, x2 = 0.7497	847.6	836.1	–	–
40000 kPa, x2 = 0.7498	–	–	1073.3	1037.1
40000 kPa, x2 = 0.8528	–	–	955.4	917.2
40000 kPa, x2 = 0.853	883.1	866.6	–	–
40000 kPa, x2 = 0.9348	928.1	906.5	–	–
40000 kPa, x2 = 0.9771	963.1	935.9	–	–
40000 kPa, x2 = 0.9877	973.9	944.5	–	–
50000 kPa, x2 = 0	772	766.3	1512.3	1481.5
50000 kPa, x2 = 0.2032	–	–	1449.9	1419.2
50000 kPa, x2 = 0.205	782.5	776.4	–	–
50000 kPa, x2 = 0.3989	–	–	1370.3	1339.9
50000 kPa, x2 = 0.4	798.2	791.2	–	–
50000 kPa, x2 = 0.6007	–	–	1256	1224.3
50000 kPa, x2 = 0.6008	824.4	816.1	–	–
50000 kPa, x2 = 0.7497	858.7	848	–	–
50000 kPa, x2 = 0.7498	–	–	1128.9	1095.2
50000 kPa, x2 = 0.8528	–	–	1015.3	979.7
50000 kPa, x2 = 0.853	898.1	882.5	–	–
50000 kPa, x2 = 0.9348	950.3	929.7	–	–
50000 kPa, x2 = 0.9771	990.1	965.6	–	–
50000 kPa, x2 = 0.9877	1002.9	976.7	–	–
60000 kPa, x2 = 0	776.8	771.5	1553.7	1524.2
60000 kPa, x2 = 0.2032	–	–	1492.5	1462.4
60000 kPa, x2 = 0.205	787.9	782.1	–	–
60000 kPa, x2 = 0.3989	–	–	1414.9	1385.2
60000 kPa, x2 = 0.4	804.4	797.6	–	–
60000 kPa, x2 = 0.6007	–	–	1303.2	1272.9
60000 kPa, x2 = 0.6008	832.1	824.2	–	–
60000 kPa, x2 = 0.7497	868.7	858.7	–	–
60000 kPa, x2 = 0.7498	–	–	1179.5	1147
60000 kPa, x2 = 0.8528	–	–	1068.3	1034.9
60000 kPa, x2 = 0.853	911.4	896.4	–	–
60000 kPa, x2 = 0.9348	967.4	949.4	–	–
60000 kPa, x2 = 0.9771	1012.8	990.3	–	–
60000 kPa, x2 = 0.9877	1027.1	1003.1	–	–
70000 kPa, x2 = 0	781.4	776.4	1593.3	1564.6
70000 kPa, x2 = 0.2032	–	–	1532.6	1503.9
70000 kPa, x2 = 0.205	793.2	787.4	–	–
70000 kPa, x2 = 0.3989	–	–	1456.7	1427.5
70000 kPa, x2 = 0.4	810.2	803.6	–	–
70000 kPa, x2 = 0.6007	–	–	1346.4	1317.9
70000 kPa, x2 = 0.6008	839.3	831.6	–	–
70000 kPa, x2 = 0.7497	878	868.2	–	–
70000 kPa, x2 = 0.7498	–	–	1225.4	1195.2
70000 kPa, x2 = 0.8528	–	–	1116.7	1084.8
70000 kPa, x2 = 0.853	923.3	908.7	–	–
70000 kPa, x2 = 0.9348	983.5	966.6	–	–
70000 kPa, x2 = 0.9771	1032.6	1011.6	–	–
70000 kPa, x2 = 0.9877	1048.1	1025.8	–	–

Source: the NIST ThermoML archive (doi:10.1021/acs.jced.9b00311)
